Experimental data from US20120121591A1 (priority 2009, published 2012).

How the values were obtained:
Assay type in all cases: cell-based
[1] = test system: IL-2 secretion from T cells in human whole blood; conditions: read-out: WB (IL-2) IC50 (nM, Avg)
hKv1.3 = hKv1.3 (Homo sapiens, UniProt P22001); experiment: cell-based; conditions: Kv1.3 (IWQ) IC50 (nM, Avg)
[2] = test system: IFN-g secretion from T cells in human whole blood; conditions: read-out: WB (IFNg) IC50 (nM, Avg)

Chain of hKv1.3 (P22001 whole entry): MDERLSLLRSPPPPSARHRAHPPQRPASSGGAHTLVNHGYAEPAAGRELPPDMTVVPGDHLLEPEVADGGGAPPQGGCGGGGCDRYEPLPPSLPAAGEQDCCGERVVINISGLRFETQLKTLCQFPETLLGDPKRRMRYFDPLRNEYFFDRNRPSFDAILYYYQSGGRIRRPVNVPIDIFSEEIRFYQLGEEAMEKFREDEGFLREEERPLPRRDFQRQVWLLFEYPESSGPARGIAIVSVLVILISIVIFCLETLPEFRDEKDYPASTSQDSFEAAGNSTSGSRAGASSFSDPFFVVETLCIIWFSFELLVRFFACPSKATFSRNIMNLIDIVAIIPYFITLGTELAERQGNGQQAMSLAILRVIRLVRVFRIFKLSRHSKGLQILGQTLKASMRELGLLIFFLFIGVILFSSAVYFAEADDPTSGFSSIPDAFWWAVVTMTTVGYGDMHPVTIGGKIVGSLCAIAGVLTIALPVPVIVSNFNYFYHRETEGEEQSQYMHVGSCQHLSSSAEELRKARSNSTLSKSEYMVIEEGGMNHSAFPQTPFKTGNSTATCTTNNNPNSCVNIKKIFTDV

SMILES	IC50 [1]	IC50 (hKv1.3)	IC50 [2]
CC[C@H](C)[C@@H]1NC(=O)[C@@H](NC(=O)[C@H](CO)NC(=O)[C@@H](N)CCCNC(=N)N)CSSC[C@@H](C(N)=O)NC(=O)[C@H]([C@@H](C)O)NC(=O)CNC(=O)[C@@H]2CSSC[C@@H]3NC(=O)[C@H](CCCCN)NC(=O)[C@H](Cc4ccccc4)NC(=O)[C@H](C)NC(=O)[C@H]([C@@H](C)O)NC(=O)[C@H](CSSC[C@H](NC(=O)[C@H](Cc4ccccc4)NC(=O)[C@H](CO)NC(=O)[C@H](CC(C)C)NC(=O)[C@H](CCCNC(=N)N)NC(=O)[C@H](Cc4ccc(O)cc4)NC(=O)[C@H](CCCCN)NC(=O)[C@H](CC(C)C)NC(=O)[C@H](CO)NC(=O)[C@H](Cc4c[nH]cn4)NC(=O)[C@H](CCCCN)NC3=O)C(=O)N[C@@H](CCCNC(=N)N)C(=O)N[C@@H](CCCCN)C(=O)N[C@@H]([C@@H](C)O)C(=O)N2)NC(=O)[C@H](CCCNC(=N)N)NC(=O)[C@H](CO)NC(=O)[C@H](CCCCN)NC(=O)[C@@H]2CCCN2C(=O)[C@H]([C@@H](C)CC)NC(=O)[C@H]([C@@H](C)O)NC(=O)[C@H](CC(=O)O)NC1=O [[Lys16, Leu21]ShK-amide]	0.889 nM	0.213 nM	0.636 nM
CC[C@H](C)[C@@H]1NC(=O)[C@@H](NC(=O)[C@H](CO)NC(=O)[C@@H](N)CCCNC(=N)N)CSSC[C@@H](C(=O)O)NC(=O)[C@H]([C@@H](C)O)NC(=O)CNC(=O)[C@@H]2CSSC[C@@H]3NC(=O)[C@H](CCC(N)=O)NC(=O)[C@H](Cc4ccccc4)NC(=O)[C@H](C)NC(=O)[C@H]([C@@H](C)O)NC(=O)[C@H](CSSC[C@H](NC(=O)[C@H](Cc4ccccc4)NC(=O)[C@H](CO)NC(=O)[C@H](CC(C)C)NC(=O)[C@H](CCCNC(=N)N)NC(=O)[C@H](Cc4ccc(O)cc4)NC(=O)[C@H](CCCCN)NC(=O)[C@H](CCSC)NC(=O)[C@H](CO)NC(=O)[C@H](Cc4c[nH]cn4)NC(=O)[C@H](CCCCN)NC3=O)C(=O)N[C@@H](CCCNC(=N)N)C(=O)N[C@@H](CCCCN)C(=O)N[C@@H]([C@@H](C)O)C(=O)N2)NC(=O)[C@H](CCCNC(=N)N)NC(=O)[C@H](CO)NC(=O)[C@H](C)NC(=O)[C@@H]2CCCN2C(=O)[C@H]([C@@H](C)CC)NC(=O)[C@H]([C@@H](C)O)NC(=O)[C@H](CC(=O)O)NC1=O [[Ala9]ShK]	0.053 nM	0.116 nM	0.103 nM
CC[C@H](C)[C@@H]1NC(=O)[C@@H](NC(=O)[C@H](CO)NC(=O)[C@@H](N)CCCNC(=N)N)CSSC[C@@H](C(N)=O)NC(=O)[C@H]([C@@H](C)O)NC(=O)CNC(=O)[C@@H]2CSSC[C@@H]3NC(=O)[C@H](CCCCN)NC(=O)[C@H](C)NC(=O)[C@H](C)NC(=O)[C@H]([C@@H](C)O)NC(=O)[C@H](CSSC[C@H](NC(=O)[C@H](Cc4ccccc4)NC(=O)[C@H](CO)NC(=O)[C@H](CC(C)C)NC(=O)[C@H](CCCNC(=N)N)NC(=O)[C@H](Cc4ccc(O)cc4)NC(=O)[C@H](CCCCN)NC(=O)[C@H](CCSC)NC(=O)[C@H](CO)NC(=O)[C@H](Cc4c[nH]cn4)NC(=O)[C@H](CCCCN)NC3=O)C(=O)N[C@@H](CCCNC(=N)N)C(=O)N[C@@H](CCCCN)C(=O)N[C@@H]([C@@H](C)O)C(=O)N2)NC(=O)[C@H](CCCNC(=N)N)NC(=O)[C@H](CO)NC(=O)[C@H](CCCCN)NC(=O)[C@@H]2CCCN2C(=O)[C@H]([C@@H](C)CC)NC(=O)[C@H]([C@@H](C)O)NC(=O)[C@H](CC(=O)O)NC1=O [[Ala15,Lys16]ShK-amide]	0.167 nM	0.091 nM	0.193 nM
CC[C@H](C)[C@@H]1NC(=O)[C@@H](NC(=O)[C@H](CO)NC(=O)[C@@H](N)CCCNC(=N)N)CSSC[C@@H](C(N)=O)NC(=O)[C@H]([C@@H](C)O)NC(=O)CNC(=O)[C@@H]2CSSC[C@@H]3NC(=O)[C@H](CCCCN)NC(=O)[C@H](Cc4ccccc4)NC(=O)[C@H](C)NC(=O)[C@H]([C@@H](C)O)NC(=O)[C@H](CSSC[C@H](NC(=O)[C@H](Cc4ccccc4)NC(=O)[C@H](CO)NC(=O)[C@H](CC(C)C)NC(=O)[C@H](CCCNC(=N)N)NC(=O)[C@H](Cc4ccc(O)cc4)NC(=O)[C@H](CCCCN)NC(=O)[C@H](CC[S+](C)[O-])NC(=O)[C@H](CO)NC(=O)[C@H](Cc4c[nH]cn4)NC(=O)[C@H](CCCCN)NC3=O)C(=O)N[C@@H](CCCNC(=N)N)C(=O)N[C@@H](CCCCN)C(=O)N[C@@H]([C@@H](C)O)C(=O)N2)NC(=O)[C@H](CCCNC(=N)N)NC(=O)[C@H](CO)NC(=O)[C@H](CCCCN)NC(=O)[C@@H]2CCCN2C(=O)[C@H]([C@@H](C)CC)NC(=O)[C@H]([C@@H](C)O)NC(=O)[C@H](CC(=O)O)NC1=O (stereo partly drawn) [[Lys16, Met(O)21]ShK-amide]	0.24 nM	0.106 nM	0.289 nM
CC[C@H](C)[C@@H]1NC(=O)[C@@H](NC(=O)[C@H](CO)NC(=O)[C@@H](N)CCCNC(=N)N)CSSC[C@@H](C(N)=O)NC(=O)[C@H]([C@@H](C)O)NC(=O)CNC(=O)[C@@H]2CSSC[C@@H]3NC(=O)[C@H](CCCCN)NC(=O)[C@H](Cc4ccccc4)NC(=O)[C@H](C)NC(=O)[C@H]([C@@H](C)O)NC(=O)[C@H](CSSC[C@H](NC(=O)[C@H](Cc4ccccc4)NC(=O)[C@H](CO)NC(=O)[C@H](CC(C)C)NC(=O)[C@H](CCCNC(=N)N)NC(=O)[C@H](Cc4ccc(O)cc4)NC(=O)[C@H](CCCCN)NC(=O)[C@H](C4CCCCC4)NC(=O)[C@H](CO)NC(=O)[C@H](Cc4c[nH]cn4)NC(=O)[C@H](CCCCN)NC3=O)C(=O)N[C@@H](CCCNC(=N)N)C(=O)N[C@@H](CCCCN)C(=O)N[C@@H]([C@@H](C)O)C(=O)N2)NC(=O)[C@H](CCCNC(=N)N)NC(=O)[C@H](CO)NC(=O)[C@H](CCCCN)NC(=O)[C@@H]2CCCN2C(=O)[C@H]([C@@H](C)CC)NC(=O)[C@H]([C@@H](C)O)NC(=O)[C@H](CC(=O)O)NC1=O [[Lys16, Chg21]ShK-amide]	0.875 nM	0.205 nM	0.727 nM
CC[C@H](C)[C@@H]1NC(=O)[C@@H](NC(=O)[C@H](CO)NC(=O)[C@@H](N)CCCNC(=N)N)CSSC[C@@H](C(=O)O)NC(=O)[C@H]([C@@H](C)O)NC(=O)CNC(=O)[C@@H]2CSSC[C@@H]3NC(=O)[C@H](CCC(N)=O)NC(=O)[C@H](Cc4ccccc4)NC(=O)[C@H](C)NC(=O)[C@H]([C@@H](C)O)NC(=O)[C@H](CSSC[C@H](NC(=O)[C@H](Cc4ccccc4)NC(=O)[C@H](CO)NC(=O)[C@H](CCCCN)NC(=O)[C@H](CCCNC(=N)N)NC(=O)[C@H](Cc4ccc(O)cc4)NC(=O)[C@H](CCCCN)NC(=O)[C@H](CCSC)NC(=O)[C@H](CO)NC(=O)[C@H](Cc4c[nH]cn4)NC(=O)[C@H](CCCCN)NC3=O)C(=O)N[C@@H](CCCNC(=N)N)C(=O)N[C@@H](CCCCN)C(=O)N[C@@H]([C@@H](C)O)C(=O)N2)NC(=O)[C@H](CCCNC(=N)N)NC(=O)[C@H](CO)NC(=O)[C@H](CCCCN)NC(=O)[C@@H]2CCCN2C(=O)[C@H]([C@@H](C)CC)NC(=O)[C@H]([C@@H](C)O)NC(=O)[C@H](CC(=O)O)NC1=O [[Lys25]ShK]	0.226 nM	0.101 nM	0.366 nM
CC[C@H](C)[C@@H]1NC(=O)[C@@H](NC(=O)[C@H](CO)NC(=O)[C@@H](N)CCCNC(=N)N)CSSC[C@@H](C(=O)O)NC(=O)[C@H]([C@@H](C)O)NC(=O)CNC(=O)[C@@H]2CSSC[C@@H]3NC(=O)[C@H](CCC(N)=O)NC(=O)[C@H](Cc4ccccc4)NC(=O)[C@H](C)NC(=O)[C@H]([C@@H](C)O)NC(=O)[C@H](CSSC[C@H](NC(=O)[C@H](CCCCN)NC(=O)[C@H](CO)NC(=O)[C@H](CC(C)C)NC(=O)[C@H](CCCNC(=N)N)NC(=O)[C@H](Cc4ccc(O)cc4)NC(=O)[C@H](CCCCN)NC(=O)[C@H](CCSC)NC(=O)[C@H](CO)NC(=O)[C@H](Cc4c[nH]cn4)NC(=O)[C@H](CCCCN)NC3=O)C(=O)N[C@@H](CCCNC(=N)N)C(=O)N[C@@H](CCCCN)C(=O)N[C@@H]([C@@H](C)O)C(=O)N2)NC(=O)[C@H](CCCNC(=N)N)NC(=O)[C@H](CO)NC(=O)[C@H](CCCCN)NC(=O)[C@@H]2CCCN2C(=O)[C@H]([C@@H](C)CC)NC(=O)[C@H]([C@@H](C)O)NC(=O)[C@H](CC(=O)O)NC1=O [[Lys27]ShK]	3.48 nM	0.928 nM	11.8 nM
CC[C@H](C)[C@@H]1NC(=O)[C@@H](NC(=O)[C@H](CO)NC(=O)[C@@H](N)CCCNC(=N)N)CSSC[C@@H](C(N)=O)NC(=O)[C@H]([C@@H](C)O)NC(=O)CNC(=O)[C@@H]2CSSC[C@@H]3NC(=O)[C@H](CCCCN)NC(=O)[C@H](Cc4ccccc4)NC(=O)[C@H](C)NC(=O)[C@H]([C@@H](C)O)NC(=O)[C@H](CSSC[C@H](NC(=O)[C@H](Cc4ccccc4)NC(=O)[C@H](CO)NC(=O)[C@H](CC(C)C)NC(=O)[C@H](CCCNC(=N)N)NC(=O)[C@H](Cc4ccc(O)cc4)NC(=O)[C@H](CCCCN)NC(=O)[C@H](CO)NC(=O)[C@H](CO)NC(=O)[C@H](Cc4c[nH]cn4)NC(=O)[C@H](CCCCN)NC3=O)C(=O)N[C@@H](CCCNC(=N)N)C(=O)N[C@@H](CCCCN)C(=O)N[C@@H]([C@@H](C)O)C(=O)N2)NC(=O)[C@H](CCCNC(=N)N)NC(=O)[C@H](CO)NC(=O)[C@H](CCCCN)NC(=O)[C@@H]2CCCN2C(=O)[C@H]([C@@H](C)CC)NC(=O)[C@H]([C@@H](C)O)NC(=O)[C@H](CC(=O)O)NC1=O [[Lys16, Ser21]ShK-amide]	1.45 nM	0.068 nM	1.71 nM
CC[C@H](C)[C@@H]1NC(=O)[C@H]([C@@H](C)O)NC(=O)[C@H](CC(=O)O)NC(=O)[C@H](Cc2cccc3ccccc23)NC(=O)[C@@H](NC(=O)[C@H](CO)NC(=O)[C@@H](N)CCCNC(=N)N)CSSC[C@@H](C(=O)O)NC(=O)[C@H]([C@@H](C)O)NC(=O)CNC(=O)[C@@H]2CSSC[C@@H]3NC(=O)[C@H](CCC(N)=O)NC(=O)[C@H](Cc4ccccc4)NC(=O)[C@H](C)NC(=O)[C@H]([C@@H](C)O)NC(=O)[C@H](CSSC[C@H](NC(=O)[C@H](Cc4ccccc4)NC(=O)[C@H](CO)NC(=O)[C@H](CC(C)C)NC(=O)[C@H](CCCNC(=N)N)NC(=O)[C@H](Cc4ccc(O)cc4)NC(=O)[C@H](CCCCN)NC(=O)[C@H](CCSC)NC(=O)[C@H](CO)NC(=O)[C@H](Cc4c[nH]cn4)NC(=O)[C@H](CCCCN)NC3=O)C(=O)N[C@@H](CCCNC(=N)N)C(=O)N[C@@H](CCCCN)C(=O)N[C@@H]([C@@H](C)O)C(=O)N2)NC(=O)[C@H](CCCNC(=N)N)NC(=O)[C@H](CO)NC(=O)[C@H](CCCCN)NC(=O)[C@@H]2CCCN2C1=O [[1-Nal4]ShK]	0.274 nM	0.15 nM	0.317 nM
